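Five concentrations, 48 hours, 96-well plates. Here, GI50 denotes the concentration required for 50% inhibition of growth. TGI is the concentration that stops growth completely.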
How the values were obtained:
Experiment in all cases: NCI anticancer screen, dose series, 48 h
ACHN renal = system: ACHN renal
NCI-H226 lung = system: NCI-H226 lung
LOX IMVI melanoma = system: LOX IMVI melanoma
UACC-257 melanoma = system: UACC-257 melanoma
RXF 393 renal = system: RXF 393 renal
OVCAR-8 ovarian = system: OVCAR-8 ovarian
KM12 colon = system: KM12 colon
UO-31 renal = system: UO-31 renal
M19-MEL melanoma = system: M19-MEL melanoma
SF-539 CNS = system: SF-539 CNS
DMS 114 small cell lung = system: DMS 114 small cell lung
UACC-62 melanoma = system: UACC-62 melanoma
COLO 205 colon = system: COLO 205 colon
A549 NSCLC = system: A549 NSCLC
CAKI-1 renal = system: CAKI-1 renal
SK-MEL-5 melanoma = system: SK-MEL-5 melanoma
SK-MEL-2 melanoma = system: SK-MEL-2 melanoma
SK-OV-3 ovarian = system: SK-OV-3 ovarian
SNB-75 CNS = system: SNB-75 CNS
EKVX NSCLC = system: EKVX NSCLC
SW-620 colon = system: SW-620 colon
MOLT-4 leukemia = system: MOLT-4 leukemia
SNB-19 CNS = system: SNB-19 CNS
KM20L2 colon = system: KM20L2 colon
SF-295 CNS = system: SF-295 CNS
SK-MEL-28 melanoma = system: SK-MEL-28 melanoma
HT29 colon = system: HT29 colon
NCI-H522 lung = system: NCI-H522 lung
TK-10 renal = system: TK-10 renal
IGROV1 ovarian = system: IGROV1 ovarian
RPMI-8226 leukemia = system: RPMI-8226 leukemia
CCRF-CEM leukemia = system: CCRF-CEM leukemia
OVCAR-3 ovarian = system: OVCAR-3 ovarian
M14 melanoma = system: M14 melanoma
MALME-3M melanoma = system: MALME-3M melanoma
U251 CNS = system: U251 CNS
SF-268 CNS = system: SF-268 CNS
HCT-116 colon = system: HCT-116 colon
HOP-62 NSCLC = system: HOP-62 NSCLC
K-562 leukemia = system: K-562 leukemia
NCI-H23 lung = system: NCI-H23 lung
HL-60(TB) leukemia = system: HL-60(TB) leukemia
786-0 renal = system: 786-0 renal
HCC-2998 colon = system: HCC-2998 colon
SR leukemia = system: SR leukemia
OVCAR-5 ovarian = system: OVCAR-5 ovarian
NCI-H460 lung = system: NCI-H460 lung
A498 renal = system: A498 renal
HCT-15 colon = system: HCT-15 colon
SN12C renal = system: SN12C renal
OVCAR-4 ovarian = system: OVCAR-4 ovarian
SNB-78 CNS = system: SNB-78 CNS
DMS 273 small cell lung = system: DMS 273 small cell lung
DLD-1 colon = system: DLD-1 colon
LXFL 529 NSCLC = system: LXFL 529 NSCLC
HOP-92 NSCLC = system: HOP-92 NSCLC

`CN(C)C(=S)/N=c1\ss/c(=N\C(=S)N(C)C)n1C1CCCCC1` was tested, and the TGI (ACHN renal) was > 100 µM, the TGI (NCI-H226 lung) was > 100 µM and the TGI (LOX IMVI melanoma) was > 100 µM. For the same compound, the TGI (UACC-257 melanoma) was > 100 µM, the TGI (RXF 393 renal) was > 100 µM and the TGI (OVCAR-8 ovarian) was > 100 µM. The TGI (KM12 colon) was > 100 µM, the TGI (UO-31 renal) was > 100 µM and the TGI (M19-MEL melanoma) was > 100 µM. For the same compound, the TGI (SF-539 CNS) was > 100 µM, the TGI (DMS 114 small cell lung) was 24.2 µM and the TGI (UACC-62 melanoma) was > 100 µM. For the same compound, the TGI (COLO 205 colon) was > 100 µM, the TGI (A549 NSCLC) was > 100 µM and the TGI (CAKI-1 renal) was > 100 µM. For the same compound, the TGI (SK-MEL-5 melanoma) was > 100 µM, the TGI (SK-MEL-2 melanoma) was > 100 µM and the TGI (SK-OV-3 ovarian) was > 100 µM. For the same compound, the TGI (SNB-75 CNS) was > 100 µM, the TGI (EKVX NSCLC) was > 100 µM and the TGI (SW-620 colon) was > 100 µM. For the same compound, the TGI (MOLT-4 leukemia) was > 100 µM, the TGI (SNB-19 CNS) was > 100 µM and the TGI (KM20L2 colon) was > 100 µM. The TGI (SF-295 CNS) was > 100 µM, the TGI (SK-MEL-28 melanoma) was > 100 µM and the TGI (HT29 colon) was 43.8 µM. For the same compound, the TGI (NCI-H522 lung) was > 100 µM, the TGI (TK-10 renal) was > 100 µM and the TGI (IGROV1 ovarian) was > 100 µM. For the same compound, the TGI (RPMI-8226 leukemia) was > 100 µM, the TGI (CCRF-CEM leukemia) was > 100 µM and the TGI (OVCAR-3 ovarian) was > 100 µM. For the same compound, the TGI (M14 melanoma) was > 100 µM, the TGI (MALME-3M melanoma) was > 100 µM and the TGI (U251 CNS) was > 100 µM. For the same compound, the TGI (SF-268 CNS) was > 100 µM, the TGI (HCT-116 colon) was > 100 µM and the TGI (HOP-62 NSCLC) was > 100 µM. For the same compound, the TGI (K-562 leukemia) was > 100 µM, the TGI (NCI-H23 lung) was > 100 µM and the TGI (HL-60(TB) leukemia) was > 100 µM. The TGI (786-0 renal) was > 100 µM, the TGI (HCC-2998 colon) was > 100 µM and the TGI (SR leukemia) was > 100 µM. The TGI (OVCAR-5 ovarian) was > 100 µM, the TGI (NCI-H460 lung) was 15.5 µM and the TGI (A498 renal) was > 100 µM. For the same compound, the TGI (HCT-15 colon) was > 100 µM, the TGI (SN12C renal) was > 100 µM and the TGI (OVCAR-4 ovarian) was 63 µM. For the same compound, the TGI (SNB-78 CNS) was > 100 µM.

For `CC(C)CC(=O)[O-].N.N.N.N.N.[Co+3].[O-][Cl+3]([O-])([O-])[O-]`, the GI50 (DMS 273 small cell lung) was > 100 µM, the TGI (DMS 273 small cell lung) was > 100 µM and the GI50 (ACHN renal) was > 100 µM. The TGI (ACHN renal) was > 100 µM, the GI50 (LOX IMVI melanoma) was > 100 µM and the TGI (LOX IMVI melanoma) was > 100 µM. The GI50 (UACC-257 melanoma) was > 100 µM, the TGI (UACC-257 melanoma) was > 100 µM and the GI50 (OVCAR-8 ovarian) was > 100 µM. For the same compound, the TGI (OVCAR-8 ovarian) was > 100 µM, the GI50 (KM12 colon) was > 100 µM and the TGI (KM12 colon) was > 100 µM. For the same compound, the GI50 (UO-31 renal) was 85.7 µM, the TGI (UO-31 renal) was > 100 µM and the GI50 (SF-539 CNS) was > 100 µM. The TGI (SF-539 CNS) was > 100 µM, the GI50 (UACC-62 melanoma) was > 100 µM and the TGI (UACC-62 melanoma) was > 100 µM. The GI50 (COLO 205 colon) was > 100 µM, the TGI (COLO 205 colon) was > 100 µM and the GI50 (DLD-1 colon) was > 100 µM. The TGI (DLD-1 colon) was > 100 µM, the GI50 (A549 NSCLC) was > 100 µM and the TGI (A549 NSCLC) was > 100 µM. For the same compound, the GI50 (SK-MEL-5 melanoma) was > 100 µM, the TGI (SK-MEL-5 melanoma) was > 100 µM and the GI50 (SK-MEL-2 melanoma) was > 100 µM. For the same compound, the TGI (SK-MEL-2 melanoma) was > 100 µM, the GI50 (SK-OV-3 ovarian) was > 100 µM and the TGI (SK-OV-3 ovarian) was > 100 µM. For the same compound, the GI50 (SNB-75 CNS) was 22 µM, the TGI (SNB-75 CNS) was > 100 µM and the GI50 (EKVX NSCLC) was > 100 µM. For the same compound, the TGI (EKVX NSCLC) was > 100 µM, the GI50 (SW-620 colon) was > 100 µM and the TGI (SW-620 colon) was > 100 µM. For the same compound, the GI50 (MOLT-4 leukemia) was 70.8 µM, the TGI (MOLT-4 leukemia) was > 100 µM and the GI50 (SNB-19 CNS) was > 100 µM. For the same compound, the TGI (SNB-19 CNS) was > 100 µM, the GI50 (KM20L2 colon) was > 100 µM and the TGI (KM20L2 colon) was > 100 µM. For the same compound, the GI50 (SF-295 CNS) was > 100 µM, the TGI (SF-295 CNS) was > 100 µM and the GI50 (SK-MEL-28 melanoma) was > 100 µM. For the same compound, the TGI (SK-MEL-28 melanoma) was > 100 µM, the GI50 (HT29 colon) was > 100 µM and the TGI (HT29 colon) was > 100 µM. For the same compound, the GI50 (NCI-H522 lung) was > 100 µM, the TGI (NCI-H522 lung) was > 100 µM and the GI50 (TK-10 renal) was > 100 µM. For the same compound, the TGI (TK-10 renal) was > 100 µM, the GI50 (IGROV1 ovarian) was > 100 µM and the TGI (IGROV1 ovarian) was > 100 µM. For the same compound, the GI50 (RPMI-8226 leukemia) was > 100 µM, the TGI (RPMI-8226 leukemia) was > 100 µM and the GI50 (CCRF-CEM leukemia) was > 100 µM. For the same compound, the TGI (CCRF-CEM leukemia) was > 100 µM, the GI50 (OVCAR-3 ovarian) was > 100 µM and the TGI (OVCAR-3 ovarian) was > 100 µM. For the same compound, the GI50 (M14 melanoma) was > 100 µM, the TGI (M14 melanoma) was > 100 µM and the GI50 (MALME-3M melanoma) was > 100 µM. For the same compound, the TGI (MALME-3M melanoma) was > 100 µM, the GI50 (U251 CNS) was > 100 µM and the TGI (U251 CNS) was > 100 µM. For the same compound, the GI50 (SF-268 CNS) was > 100 µM, the TGI (SF-268 CNS) was > 100 µM and the GI50 (HCT-116 colon) was > 100 µM. The TGI (HCT-116 colon) was > 100 µM, the GI50 (HOP-62 NSCLC) was > 100 µM and the TGI (HOP-62 NSCLC) was > 100 µM. For the same compound, the GI50 (K-562 leukemia) was > 100 µM, the TGI (K-562 leukemia) was > 100 µM and the GI50 (LXFL 529 NSCLC) was > 100 µM. For the same compound, the TGI (LXFL 529 NSCLC) was > 100 µM, the GI50 (NCI-H23 lung) was > 100 µM and the TGI (NCI-H23 lung) was > 100 µM. For the same compound, the GI50 (786-0 renal) was > 100 µM, the TGI (786-0 renal) was > 100 µM and the GI50 (HCC-2998 colon) was > 100 µM. The TGI (HCC-2998 colon) was > 100 µM, the GI50 (HOP-92 NSCLC) was > 100 µM and the TGI (HOP-92 NSCLC) was > 100 µM. The GI50 (OVCAR-5 ovarian) was > 100 µM, the TGI (OVCAR-5 ovarian) was > 100 µM and the GI50 (NCI-H460 lung) was > 100 µM. The TGI (NCI-H460 lung) was > 100 µM, the GI50 (A498 renal) was > 100 µM and the TGI (A498 renal) was > 100 µM. The GI50 (HCT-15 colon) was > 100 µM, the TGI (HCT-15 colon) was > 100 µM and the GI50 (SN12C renal) was > 100 µM. The TGI (SN12C renal) was > 100 µM, the GI50 (OVCAR-4 ovarian) was > 100 µM and the TGI (OVCAR-4 ovarian) was > 100 µM. For the same compound, the GI50 (SNB-78 CNS) was > 100 µM and the TGI (SNB-78 CNS) was > 100 µM.

From PubChem BioAssay (NCI)
